For 2 compounds, IC50 results are on record in BindingDB's records for doi:10.1021/jm00045a012 (Dupont Pharmaceuticals, 1994).

Each structure is given as a SMILES string.

The test deals with Stromelysin-1 (MMP-3) (Homo sapiens) (UniProt P08254). The experiment in a line: Tested for the inhibition of prostromelysin activation with no preincubation period.
Chain of Stromelysin-1 (MMP-3) (Homo sapiens) (P08254 whole entry, looked up): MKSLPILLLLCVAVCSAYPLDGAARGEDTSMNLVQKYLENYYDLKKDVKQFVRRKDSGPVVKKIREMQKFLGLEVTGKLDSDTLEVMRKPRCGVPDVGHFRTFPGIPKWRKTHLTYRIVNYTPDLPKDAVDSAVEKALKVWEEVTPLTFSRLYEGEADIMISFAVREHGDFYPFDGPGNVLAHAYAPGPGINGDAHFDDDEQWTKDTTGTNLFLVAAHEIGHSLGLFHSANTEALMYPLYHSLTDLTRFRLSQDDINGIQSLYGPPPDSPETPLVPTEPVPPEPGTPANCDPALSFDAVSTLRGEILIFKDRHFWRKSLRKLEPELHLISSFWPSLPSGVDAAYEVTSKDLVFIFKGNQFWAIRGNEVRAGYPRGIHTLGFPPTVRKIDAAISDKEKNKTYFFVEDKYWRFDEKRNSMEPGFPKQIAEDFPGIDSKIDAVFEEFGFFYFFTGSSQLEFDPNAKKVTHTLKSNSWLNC

Usually IC50 stands for the concentration that gives 50% inhibition. High values mean a need for much substance, low ones inhibition by little substance. As to `COc1ccc(-n2sc3ncccc3c2=O)c(OC)c1` [2-(2,4-Dimethoxy-phenyl)-isothiazolo[5,4-b]pyridin-3-one], the IC50 turned out to be 62 µM. Then `COc1ccc(OC)c(-n2sc3ncccc3c2=O)c1` [2-(2,5-Dimethoxy-phenyl)-isothiazolo[5,4-b]pyridin-3-one], with 53 µM.
